Assays:
[1] = target: T1, Protein kinase C beta type (Homo sapiens, UniProt P05771); assay: Inhibition of human Protein kinase C beta 1
[2] = target: Protein kinase C eta type (Homo sapiens, UniProt P24723); assay: Inhibition of human protein kinase C eta
[3] = target: T1, Protein kinase C beta type; assay: Inhibition of human Protein kinase C beta 2
[4] = target: Protein kinase C alpha type (Homo sapiens, UniProt P17252); assay: Inhibition of human Protein kinase C alpha
[5] = target: T2, Protein kinase C zeta type (Homo sapiens, UniProt Q05513); assay: Inhibition of Protein kinase C zeta
T2 sequence (Q05513 whole entry): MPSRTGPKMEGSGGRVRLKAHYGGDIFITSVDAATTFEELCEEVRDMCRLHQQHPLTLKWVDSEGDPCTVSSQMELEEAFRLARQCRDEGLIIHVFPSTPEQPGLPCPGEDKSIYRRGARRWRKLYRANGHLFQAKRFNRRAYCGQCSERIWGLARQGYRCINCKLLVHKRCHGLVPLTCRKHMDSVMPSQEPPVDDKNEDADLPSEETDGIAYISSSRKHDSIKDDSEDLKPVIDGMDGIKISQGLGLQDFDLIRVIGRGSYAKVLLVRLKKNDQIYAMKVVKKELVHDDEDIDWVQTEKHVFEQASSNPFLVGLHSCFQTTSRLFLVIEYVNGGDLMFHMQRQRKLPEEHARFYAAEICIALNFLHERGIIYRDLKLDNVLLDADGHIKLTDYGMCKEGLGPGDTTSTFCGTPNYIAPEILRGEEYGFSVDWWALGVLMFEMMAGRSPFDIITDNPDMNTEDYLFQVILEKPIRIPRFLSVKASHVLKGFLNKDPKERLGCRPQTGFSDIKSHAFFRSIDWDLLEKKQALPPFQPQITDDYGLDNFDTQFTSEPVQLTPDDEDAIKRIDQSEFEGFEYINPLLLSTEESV

[6] = target: Protein kinase C gamma type (Homo sapiens, UniProt P05129); assay: Inhibition of human Protein kinase C gamma
[7] = target: Protein kinase C delta type (Homo sapiens, UniProt Q05655); assay: Inhibition of human Protein kinase C delta
[8] = target: T3, Protein kinase C epsilon type (Homo sapiens, UniProt Q02156); assay: Inhibition of human Protein kinase C epsilon
T3 sequence (Q02156 whole entry): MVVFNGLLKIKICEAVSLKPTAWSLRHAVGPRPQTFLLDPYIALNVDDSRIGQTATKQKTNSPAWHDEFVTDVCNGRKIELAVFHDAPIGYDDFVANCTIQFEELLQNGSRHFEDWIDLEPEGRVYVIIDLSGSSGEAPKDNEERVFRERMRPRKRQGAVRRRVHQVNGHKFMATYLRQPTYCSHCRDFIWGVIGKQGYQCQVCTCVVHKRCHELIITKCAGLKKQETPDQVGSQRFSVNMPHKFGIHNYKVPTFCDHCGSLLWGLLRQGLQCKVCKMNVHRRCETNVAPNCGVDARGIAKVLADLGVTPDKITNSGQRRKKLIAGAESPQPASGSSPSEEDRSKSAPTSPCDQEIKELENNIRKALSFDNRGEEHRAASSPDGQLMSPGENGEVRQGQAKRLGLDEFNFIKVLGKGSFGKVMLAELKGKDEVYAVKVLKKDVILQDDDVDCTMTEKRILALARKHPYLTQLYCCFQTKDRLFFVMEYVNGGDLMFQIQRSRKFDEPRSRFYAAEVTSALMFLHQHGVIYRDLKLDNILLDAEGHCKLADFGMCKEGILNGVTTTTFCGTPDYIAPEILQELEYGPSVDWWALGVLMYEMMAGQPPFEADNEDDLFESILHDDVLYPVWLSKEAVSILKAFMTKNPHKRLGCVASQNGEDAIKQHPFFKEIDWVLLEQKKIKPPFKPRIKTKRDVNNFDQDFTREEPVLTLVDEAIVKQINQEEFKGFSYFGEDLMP

Protein kinase C delta type, sequence (Q05655 whole entry): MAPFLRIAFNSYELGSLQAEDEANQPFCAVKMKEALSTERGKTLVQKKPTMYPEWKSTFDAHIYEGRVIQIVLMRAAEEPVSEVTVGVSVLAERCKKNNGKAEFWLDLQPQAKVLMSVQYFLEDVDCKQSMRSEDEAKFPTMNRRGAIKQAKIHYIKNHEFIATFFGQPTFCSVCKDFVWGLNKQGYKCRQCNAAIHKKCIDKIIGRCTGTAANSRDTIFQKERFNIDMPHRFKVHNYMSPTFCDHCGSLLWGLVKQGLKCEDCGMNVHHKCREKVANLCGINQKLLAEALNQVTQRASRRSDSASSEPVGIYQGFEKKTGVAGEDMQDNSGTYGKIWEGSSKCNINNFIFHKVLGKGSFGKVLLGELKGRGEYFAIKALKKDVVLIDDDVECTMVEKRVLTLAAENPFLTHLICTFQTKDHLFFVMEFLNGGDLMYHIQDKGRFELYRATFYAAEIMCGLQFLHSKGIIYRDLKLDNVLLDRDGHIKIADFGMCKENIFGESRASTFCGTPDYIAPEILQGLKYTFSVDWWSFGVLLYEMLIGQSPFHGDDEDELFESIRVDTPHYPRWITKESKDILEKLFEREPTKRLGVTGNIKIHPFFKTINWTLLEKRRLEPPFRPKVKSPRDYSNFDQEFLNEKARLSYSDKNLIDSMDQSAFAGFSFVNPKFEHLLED
Protein kinase C eta type, sequence (P24723 whole entry): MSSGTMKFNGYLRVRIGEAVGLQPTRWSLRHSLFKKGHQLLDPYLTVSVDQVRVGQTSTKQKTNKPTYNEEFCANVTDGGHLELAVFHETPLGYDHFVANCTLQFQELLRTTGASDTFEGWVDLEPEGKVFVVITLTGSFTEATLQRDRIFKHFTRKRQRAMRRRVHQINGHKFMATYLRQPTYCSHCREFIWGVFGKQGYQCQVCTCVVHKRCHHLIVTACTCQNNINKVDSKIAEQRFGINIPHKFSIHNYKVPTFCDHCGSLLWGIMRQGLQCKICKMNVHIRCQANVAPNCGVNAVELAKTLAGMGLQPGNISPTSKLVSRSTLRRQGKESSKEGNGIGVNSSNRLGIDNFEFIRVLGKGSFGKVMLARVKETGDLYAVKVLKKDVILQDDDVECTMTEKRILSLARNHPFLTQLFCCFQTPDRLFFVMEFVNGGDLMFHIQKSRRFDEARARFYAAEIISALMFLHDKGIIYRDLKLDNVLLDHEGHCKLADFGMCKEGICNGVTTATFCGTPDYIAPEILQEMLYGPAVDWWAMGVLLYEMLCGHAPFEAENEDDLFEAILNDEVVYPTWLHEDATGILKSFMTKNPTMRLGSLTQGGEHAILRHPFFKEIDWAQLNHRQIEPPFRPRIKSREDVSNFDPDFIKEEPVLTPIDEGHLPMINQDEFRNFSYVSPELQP
T1 sequence (P05771 whole entry): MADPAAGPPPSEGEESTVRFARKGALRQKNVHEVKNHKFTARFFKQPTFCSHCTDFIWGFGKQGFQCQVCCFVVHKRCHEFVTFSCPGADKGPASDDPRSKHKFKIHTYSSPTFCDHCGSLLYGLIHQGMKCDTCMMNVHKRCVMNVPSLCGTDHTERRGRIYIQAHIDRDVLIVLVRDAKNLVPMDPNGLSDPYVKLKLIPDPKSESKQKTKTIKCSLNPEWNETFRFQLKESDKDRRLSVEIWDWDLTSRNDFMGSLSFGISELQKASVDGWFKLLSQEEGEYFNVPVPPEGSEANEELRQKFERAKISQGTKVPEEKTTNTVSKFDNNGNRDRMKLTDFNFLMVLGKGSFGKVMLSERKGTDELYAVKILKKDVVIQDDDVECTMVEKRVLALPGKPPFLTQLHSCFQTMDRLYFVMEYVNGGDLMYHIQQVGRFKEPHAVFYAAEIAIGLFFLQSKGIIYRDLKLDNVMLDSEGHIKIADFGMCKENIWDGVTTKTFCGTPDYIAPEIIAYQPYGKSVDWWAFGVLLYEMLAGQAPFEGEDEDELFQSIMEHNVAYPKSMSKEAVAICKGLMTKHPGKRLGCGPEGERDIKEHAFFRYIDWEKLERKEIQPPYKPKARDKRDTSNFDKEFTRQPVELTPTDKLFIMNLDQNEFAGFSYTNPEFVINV

IC50 [1]	IC50 [2]	IC50 [3]	IC50 [4]	IC50 [5]	IC50 [6]	IC50 [7]	IC50 [8]	Compound
0.22 µM	0.06 µM	0.43 µM	0.27 µM	> 150 µM	0.06 µM	0.09 µM	0.28 µM	O=C(N[C@@H]1CCCCC[C@H]1OC(=O)c1cc(O)c(C(=O)c2c(O)cccc2C(=O)O)c(O)c1)c1ccc(O)cc1
0.04 µM	0.0006 µM	0.05 µM	0.04 µM		0.01 µM	0.0009 µM	0.05 µM	O=C(N[C@@H]1CCC[C@H]1OC(=O)c1cc(O)c(C(=O)c2c(O)cccc2C(=O)O)c(O)c1)c1ccc(O)cc1
0.017 µM	0.004 µM	0.033 µM	0.022 µM	> 0.15 µM	0.013 µM	0.005 µM	0.01 µM	O=C(N[C@@H]1CNC[C@H]1OC(=O)c1cc(O)c(C(=O)c2c(O)cccc2C(=O)O)c(O)c1)c1ccc(O)cc1
2.2 µM	0.08 µM	4.7 µM	5.1 µM	> 150 µM	2.2 µM	0.05 µM	1.8 µM	O=C(N[C@@H]1CNCC[C@H]1OC(=O)c1cc(O)c(C(=O)c2c(O)cccc2C(=O)O)c(O)c1)c1ccc(O)cc1
0.032 µM	0.022 µM	0.044 µM	0.074 µM	3.5 µM	0.034 µM	0.032 µM		O=C(N[C@@H]1CNCCC[C@H]1OC(=O)c1cc(O)c(C(=O)c2c(O)cccc2C(=O)O)c(O)c1)c1ccc(O)cc1 (racemic) [BALANOL]

Source: ChEMBL document CHEMBL1150040 (Bioorg Med Chem Lett, 1995)
